{"source": "patent US9056111B1", "about": "“Selective efflux inhibitors and related pharmaceutical compositions and methods of treatment” (STC.UNM, priority 2011, dated 2015)", "key": {"ABCB1": {"target": "ABCB1 (Homo sapiens, UniProt P08183)", "sequence (P08183 whole entry)": "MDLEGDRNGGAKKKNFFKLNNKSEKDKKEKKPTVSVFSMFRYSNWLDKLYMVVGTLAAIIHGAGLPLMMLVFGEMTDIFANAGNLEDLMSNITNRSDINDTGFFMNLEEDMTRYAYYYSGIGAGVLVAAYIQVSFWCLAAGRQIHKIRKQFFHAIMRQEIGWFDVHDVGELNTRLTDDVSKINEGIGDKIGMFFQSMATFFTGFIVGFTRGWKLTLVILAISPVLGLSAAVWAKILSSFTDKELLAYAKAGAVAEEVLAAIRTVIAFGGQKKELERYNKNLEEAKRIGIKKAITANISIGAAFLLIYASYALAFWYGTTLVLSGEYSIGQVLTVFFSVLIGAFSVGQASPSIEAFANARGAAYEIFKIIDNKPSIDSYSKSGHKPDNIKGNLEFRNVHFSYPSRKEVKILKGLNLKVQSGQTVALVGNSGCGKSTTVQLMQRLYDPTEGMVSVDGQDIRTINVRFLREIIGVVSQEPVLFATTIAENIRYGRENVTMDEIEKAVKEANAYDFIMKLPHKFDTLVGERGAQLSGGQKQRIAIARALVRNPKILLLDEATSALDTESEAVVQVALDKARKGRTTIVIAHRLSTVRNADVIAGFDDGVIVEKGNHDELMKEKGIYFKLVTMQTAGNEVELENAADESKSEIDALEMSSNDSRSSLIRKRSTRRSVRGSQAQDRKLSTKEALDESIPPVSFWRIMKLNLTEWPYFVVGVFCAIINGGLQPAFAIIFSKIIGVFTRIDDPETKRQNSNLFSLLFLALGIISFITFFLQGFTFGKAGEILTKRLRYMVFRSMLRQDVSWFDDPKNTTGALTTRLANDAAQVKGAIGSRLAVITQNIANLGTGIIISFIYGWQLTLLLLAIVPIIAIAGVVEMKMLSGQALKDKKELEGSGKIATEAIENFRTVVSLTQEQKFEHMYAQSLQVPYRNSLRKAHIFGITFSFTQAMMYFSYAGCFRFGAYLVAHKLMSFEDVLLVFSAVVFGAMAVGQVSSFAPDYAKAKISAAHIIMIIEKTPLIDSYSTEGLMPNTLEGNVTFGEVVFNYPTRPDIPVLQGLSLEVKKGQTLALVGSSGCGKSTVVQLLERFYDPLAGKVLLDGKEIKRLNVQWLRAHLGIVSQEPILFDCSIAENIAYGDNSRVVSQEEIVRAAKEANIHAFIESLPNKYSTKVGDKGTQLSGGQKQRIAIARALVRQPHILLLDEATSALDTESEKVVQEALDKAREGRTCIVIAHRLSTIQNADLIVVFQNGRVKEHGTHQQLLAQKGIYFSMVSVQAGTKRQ", "assay": "JC-1 efflux inhibition dose response, flow cytometry, Jurkat-DNR cells", "procedure,_shortened": "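Jurkat-DNR cells pre-stained with 1 μM JC-1 were incubated with compound (final 50 μM to 69 nM, […]) at 1×10^6 cells/mL, rotated 30 min at 25° C. Retained JC-1 read by flow cytometry (488 nm excitation, 530/40 nm emission). Curves fitted to a four-parameter logistic.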"}, "[1]": {"test_system": "ABCB1 over-expressing Jurkat-DNR cells", "assay": "Chemoreversal assay: potentiation of daunorubicin (DNR) killing", "format": "cell-based", "settings": "constant 100 nM DNR, varied inhibitor dose, read-out: CR50 ABCB1"}, "Jurkat-DNR cells": {"test_system": "Jurkat-DNR cells", "assay": "Direct cytotoxicity (Toxic Dose 50) without chemotherapeutic", "settings": "Jurkat-DNR cells, inhibitor without chemotherapeutic", "procedure,_shortened": "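Jurkat-DNR cells grown in media alone with compound over a 3-order-of-magnitude range for 3 and 7 days, keeping at least 1×10^5 cells/mL. Viability by trypan blue exclusion counted under light microscopy; TD50 derived from cell death.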"}, "[2]": {"test_system": "ABCG2 over-expressing Igrov1/T8 tumors", "assay": "ABCG2 resistant Igrov1/T8 tumor xenograft, combination with topotecan", "format": "in vivo, CB-17 SCID mice", "settings": "for tumor size, combination of TPT and inhibitor: 150 nM TPT + 100 nM SID 88095709 (1) or 500 nM SID 85752814 (7), up to 96 hr", "protocol": "Specific-pathogen-free adult CB-17 female SCID mice (5-6 weeks of age) weighing 20-25 g, are purchased. Briefly, ABCG2 over-expressing Igrov1/T8 cells are injected (5×10^6 cells/mouse). Prior to injection, Igrov1/T8 cells are maintained in topotecan in order to assure continuous expression of ABCG2. Tumors are allowed to grow for 3-4 weeks or until tumor volumes are greater than ˜100 cubic millimeters, at which time they are stratified into treatment groups. Treatment is administered and we observe the size of the tumor and weight of the mouse over a 7 day period. At the end of 7 days, we: 1) sacrifice the animal; 2) measure and weigh the tumor (if present); 3) analyze the histology of the tumor as well as other organs for evidence of toxicity; and 4) measure the expression of ABCG2 receptors on the tumor to determine if in vivo growth has altered ABCG2 expression. In our initial studies, we have generally observed high survival at 4 weeks (>90%) which escalates rapidly with near 100% mortality by 6 weeks. This approach is well described elsewhere.^9\nTumor-bearing mice were injected with either 150 nM TPT, 100 nM SID 88095709 (probe resupply), or 500 nM SID 85752814 (original SMR hit).\nIgrov1/T8 cells were injected into the hind limbs of CB-17 SCID mice at a concentration of 1×10^7 cells in 200 μL, n of 3 per condition. The tumor was grown until the volume was in the range of 75 mm^3 to 250 mm^3. […] Injections were repeated daily and the size of the tumor was determined as a fraction of the starting size. After four days the mice were sacrificed and any recurring tumor was verified by light microscopy examination of histological sections. Mice were studied and maintained in accordance with guidelines of our Institutional Animal Research Committee at UNM HSC."}, "50 kinases": {"target": "50 kinases", "assay": "Kinase profiling (KinaseSeeker, split-luciferase)", "format": "biochemical", "settings": "10 μM", "protocol": "Since ABC transporters are ATP dependent efflux pumps and several kinase targets have been implicated in the patent literature with structurally similar scaffolds, SID 88095709 was profiled against 50 kinasesat a single concentration of 10 μM to assess promiscuity of the chemotype.^66 SID 88095709 was dissolved in DMSO and tested at a final concentration of 10 μM. Prior to initiating a profiling campaign, the compound was evaluated for false positive against split-luciferase. Profiling was done in duplicate for SID 88095709 against each kinase. The Percent Inhibition and Percent Activity Remaining arecalculated using the following equation: % Inhibition=ALUControl−ALUSample×100 ALUControl % Activity Remaining=100−% Inhibition The team has also submitted SID 88095709 and the analog SID 97301789 to the NIH National Cancer Institute to elucidate the effect of SID 88095709 on the cancer cell line panel. Discussion"}}, "note": "pEC50, pIC50: −log10 of the molar value. “Also recorded” adds a separate entry of the source.", "data": [{"smiles": "O=C(c1ccoc1)N1CCN(c2cc(-c3ccco3)nc3cc(-c4ccccc4)nn23)CC1", "note": "[Compound 1, (4-(5-(furan-2-yl)-2-phenylpyrazolo[1,5-a]pyrimidin-7-yl)piperazin-1-yl)(furan-3-yl)methanone]", "values": [{"measurement": "pEC50", "setting": "ABCB1", "value": 5.33}, {"measurement": "pIC50", "setting": "ABCB1; IC50 ABCB1 (efflux inhibition of JC-1 substrate), Jurkat-DNR cells over-expressing ABCB1, averages of two to four replicates", "value": 5.33}, {"measurement": "pEC50", "setting": "[1]", "value": 6.26}, {"measurement": "TD50 ABCB1", "setting": "Jurkat-DNR cells", "value": 5.52, "unit": "µM"}, {"measurement": "TD50 ABCB1", "setting": "Jurkat-DNR cells; listed as SID 88095709", "value": 5.5, "unit": "µM"}, {"measurement": "tumor size, combination of TPT and inhibitor", "setting": "[2]", "value": "dramatically reduced tumor size; also recorded: Significant tumor reduction"}, {"measurement": "tumor size, combination of TPT and inhibitor", "setting": "[2]; listed as SID 88095709", "value": "dramatically reduced tumor size"}, {"measurement": "tumor size, single agent", "setting": "[2]; 150 nM TPT, 100 nM SID 88095709 or 500 nM SID 85752814 alone", "value": "remained the same or increased"}, {"measurement": "tumor size, inhibitor alone", "setting": "[2]; inhibitor alone (100 nM or 500 nM as printed), Example 3", "value": "No reduction in size"}, {"measurement": "kinase inhibition profile", "setting": "50 kinases", "value": "appears to not be a kinase inhibitor"}]}]}
